Source: patent publication US12559492B2, “BRAF degraders” (C4 Therapeutics, Inc., priority 2020, dated 2026)

Molecular target: BRAF^V600E protein (Homo sapiens, UniProt P15056, V600E)
Test: HiBiT cellular BRAF V600E degradation assay
Format: cell-based
Settings: 24 h incubation; for DC50: A375.10 cells (HiBiT tag knocked in at N-terminal of BRAF V600E), concentration at which 50% of total cellular BRAF V600E is degraded; for Emax: read-out: HiBit 24 h Emax
[1] = A375.10 cells, Emax = amount of residual protein remaining in the cell after compound treatment

Sequence of BRAF^V600E protein (P15056 whole entry V600E): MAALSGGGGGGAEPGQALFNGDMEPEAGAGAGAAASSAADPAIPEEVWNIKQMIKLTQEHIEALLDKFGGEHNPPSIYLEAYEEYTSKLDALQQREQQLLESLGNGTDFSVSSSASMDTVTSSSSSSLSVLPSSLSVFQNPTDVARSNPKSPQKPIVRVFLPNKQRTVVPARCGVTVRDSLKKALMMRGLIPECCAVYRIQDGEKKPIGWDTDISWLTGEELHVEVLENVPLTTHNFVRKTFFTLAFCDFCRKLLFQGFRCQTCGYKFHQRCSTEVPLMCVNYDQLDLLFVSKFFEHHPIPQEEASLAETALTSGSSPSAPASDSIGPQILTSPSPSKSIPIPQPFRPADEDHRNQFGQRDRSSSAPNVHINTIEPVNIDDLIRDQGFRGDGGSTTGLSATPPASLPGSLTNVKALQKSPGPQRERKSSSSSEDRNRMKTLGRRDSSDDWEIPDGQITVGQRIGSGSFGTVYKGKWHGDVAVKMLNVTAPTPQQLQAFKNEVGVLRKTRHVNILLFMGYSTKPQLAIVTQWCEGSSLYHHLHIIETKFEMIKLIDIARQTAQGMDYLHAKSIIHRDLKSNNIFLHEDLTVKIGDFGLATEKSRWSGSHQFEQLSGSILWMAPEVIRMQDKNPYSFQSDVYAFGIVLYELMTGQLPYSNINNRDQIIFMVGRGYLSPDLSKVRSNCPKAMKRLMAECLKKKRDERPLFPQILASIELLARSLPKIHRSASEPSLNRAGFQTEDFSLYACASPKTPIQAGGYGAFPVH

Row | DC50 | Emax [1] | HiBit 24 h Emax [1] | Compound
1 | 9.1 nM | 7.88% | – | CCN(C)S(=O)(=O)Nc1ccc(F)c(C(=O)c2c[nH]c3ncc(-c4cnc(N5CCN(C(=O)CN6CCC(c7c(F)cc(NC8CCC(=O)NC8=O)cc7F)CC6)CC5)nc4)cc23)c1F (stereo not shown) [Example 46, 5-[2-[4-[2-[4-[4-[(2,6-dioxo-3-piperidyl)amino]-2,6-difluoro-phenyl]-1-piperidyl]acetyl]piperazin-1-yl]pyrimidin-5-yl]-3-[3-[[ethyl(methyl)sulfamoyl]amino]-2,6-difluoro-benzoyl]-1H-pyrrolo[2,3-b]pyridine]
2 | 5.38 nM | 19.3% | – | CCN(C)S(=O)(=O)Nc1ccc(F)c(C(=O)c2c[nH]c3ncc(-c4cnc(N5CCN(C(=O)CC6CCN(c7ccc8c(C9CCC(=O)NC9=O)nn(C)c8c7)CC6)CC5)nc4)cc23)c1F (stereo not shown) [Example 47, 3-(2,6-dioxo-3-piperidyl)-6-[4-[2-[4-[5-[3-[3-[[ethyl(methyl)sulfamoyl]amino]-2,6-difluoro-benzoyl]-1H-pyrrolo[2,3-b]pyridin-5-yl]pyrimidin-2-yl]piperazin-1-yl]-2-oxo-ethyl]-1-piperidyl]-1-methyl-indazole]
3 | 5.51 nM | 6.09% | – | CCN(C)S(=O)(=O)Nc1ccc(F)c(C(=O)c2c[nH]c3ncc(-c4cnc(N5CCN(C(=O)CC6(O)CCN(c7ccc(NC8CCC(=O)NC8=O)cc7F)C6)CC5)nc4)cc23)c1F (stereo not shown) [Example 51, 5-[2-[4-[2-[1-[4-[(2,6-dioxo-3-piperidyl)amino]-2-fluoro-phenyl]-3-hydroxy-pyrrolidin-3-yl]acetyl]piperazin-1-yl]pyrimidin-5-yl]-3-[3-[[ethyl(methyl)sulfamoyl]amino]-2,6-difluoro-benzoyl]-1H-pyrrolo[2,3-b]pyridine]
4 | 4.72 nM | 6.94% | – | CCN(C)S(=O)(=O)Nc1ccc(F)c(C(=O)c2c[nH]c3ncc(-c4cnc(N5CCN(C(=O)CN6CC[C@@H](c7ccc(NC8CCC(=O)NC8=O)cc7)C(F)(F)C6)CC5)nc4)cc23)c1F (stereo partly drawn) [Example 54, 5-[2-[4-[2-[(4S)-4-[4-[(2,6-dioxo-3-piperidyl)amino]phenyl]-3,3-difluoro-1-piperidyl]acetyl]piperazin-1-yl]pyrimidin-5-yl]-3-[3-[[ethyl(methyl)sulfamoyl]amino]-2,6-difluoro-benzoyl]-1H-pyrrolo[2,3-b]pyridine]
5 | 4.61 nM | – | 6.57% | CCN(C)S(=O)(=O)Nc1ccc(F)c(C(=O)c2c[nH]c3ncc(-c4cnc(N5CCN(C(=O)CN6CC[C@H](c7ccc(NC8CCC(=O)NC8=O)cc7)C(F)(F)C6)CC5)nc4)cc23)c1F (stereo partly drawn) [Example 55, 5-[2-[4-[2-[(4R)-4-[4-[(2,6-dioxo-3-piperidyl)amino]phenyl]-3,3-difluoro-1-piperidyl]acetyl]piperazin-1-yl]pyrimidin-5-yl]-3-[3-[[ethyl(methyl)sulfamoyl]amino]-2,6-difluoro-benzoyl]-1H-pyrrolo[2,3-b]pyridine]
6 | 5.12 nM | 14.3% | – | CCN(C)S(=O)(=O)Nc1ccc(F)c(C(=O)c2c[nH]c3ncc(-c4cnc(N5CCN(C(=O)CC6CCN(c7ccc8c(N9CCC(=O)NC9=O)nn(C)c8c7)CC6)CC5)nc4)cc23)c1F [Example 56, 3-(2,4-dioxohexahydropyrimidin-1-yl)-6-[4-[2-[4-[5-[3-[3-[[ethyl(methyl)sulfamoyl]amino]-2,6-difluoro-benzoyl]-1H-pyrrolo[2,3-b]pyridin-5-yl]pyrimidin-2-yl]piperazin-1-yl]-2-oxo-ethyl]-1-piperidyl]-1-methyl-indazole]
7 | 10.1 nM | 18.2% | – | CCN(C)S(=O)(=O)Nc1ccc(F)c(C(=O)c2c[nH]c3ncc(-c4cnc(N5CCN(C(=O)CC6(O)CCN(c7ccc(NC8CCC(=O)NC8=O)cn7)CC6)CC5)nc4)cc23)c1F (stereo not shown) [Example 57, 5-[2-[4-[2-[1-[5-[(2,6-dioxo-3-piperidyl)amino]-2-pyridyl]-4-hydroxy-4-piperidyl]acetyl]piperazin-1-yl]pyrimidin-5-yl]-3-[3-[[ethyl(methyl)sulfamoyl]amino]-2,6-difluoro-benzoyl]-1H-pyrrolo[2,3-b]pyridine]
8 | 4.25 nM | 9.42% | – | CCN(C)S(=O)(=O)Nc1ccc(F)c(C(=O)c2c[nH]c3ncc(-c4cnc(N5CCN(C(=O)CC6(O)CCN(c7ncc(NC8CCC(=O)NC8=O)cc7F)CC6)CC5)nc4)cc23)c1F (stereo not shown) [Example 58, 5-[2-[4-[2-[1-[5-[(2,6-dioxo-3-piperidyl)amino]-3-fluoro-2-pyridyl]-4-hydroxy-4-piperidyl]acetyl]piperazin-1-yl]pyrimidin-5-yl]-3-[3-[[ethyl(methyl)sulfamoyl]amino]-2,6-difluoro-benzoyl]-1H-pyrrolo[2,3-b]pyridine]
9 | 3.75 nM | 7.83% | – | CCN(C)S(=O)(=O)Nc1ccc(F)c(C(=O)c2c[nH]c3ncc(-c4cnc(N5CCN(C(=O)CN6CCC(c7ccc8c(N9CCC(=O)NC9=O)nn(C)c8c7)C(F)(F)C6)CC5)nc4)cc23)c1F (stereo not shown) [Example 61, 3-(2,4-dioxohexahydropyrimidin-1-yl)-6-[1-[2-[4-[5-[3-[3-[[ethyl(methyl)sulfamoyl]amino]-2,6-difluoro-benzoyl]-1H-pyrrolo[2,3-b]pyridin-5-yl]pyrimidin-2-yl]piperazin-1-yl]-2-oxo-ethyl]-3,3-difluoro-4-piperidyl]-1-methyl-indazole]
10 | 40.2 nM | 11.8% | – | CCN(C)S(=O)(=O)Nc1ccc(F)c(C(=O)c2c[nH]c3ncc(-c4cnc(N5CCCN(C(=O)CN6CCC(c7ccc(NC8CCC(=O)NC8=O)cc7)CC6)CC5)nc4)cc23)c1F (stereo not shown) [Example 63, 5-[2-[4-[2-[4-[4-[(2,6-dioxo-3-piperidyl)amino]phenyl]-1-piperidyl]acetyl]-1,4-diazepan-1-yl]pyrimidin-5-yl]-3-[3-[[ethyl(methyl)sulfamoyl]amino]-2,6-difluoro-benzoyl]-1H-pyrrolo[2,3-b]pyridine]

Further lines, the compound ahead of its results:

Row | Compound | DC50 | Emax [1] | HiBit 24 h Emax [1]
11 | CCN(C)S(=O)(=O)Nc1ccc(F)c(C(=O)c2c[nH]c3ncc(-c4cnc(N5CCN(C(=O)CC6CCN(c7ccc8c(c7)n(C)c(=O)n8C7CCC(=O)NC7=O)CC6)CC5)nc4)cc23)c1F (stereo not shown) [Example 43, 1-(2,6-dioxo-3-piperidyl)-5-[4-[2-[4-[5-[3-[3-[[ethyl(methyl)sulfamoyl]amino]-2,6-difluoro-benzoyl]-1H-pyrrolo[2,3-b]pyridin-5-yl]pyrimidin-2-yl]piperazin-1-yl]-2-oxo-ethyl]-1-piperidyl]-3-methyl-2-oxo-benzimidazole] | 22.1 nM | 35.2% | –
12 | CCN(C)S(=O)(=O)Nc1ccc(F)c(C(=O)c2c[nH]c3ncc(-c4cnc(N5CCN(C(=O)CN6CCC(c7ccc(N8CCC(=O)NC8=O)cc7F)CC6)CC5)nc4)cc23)c1F [Example 44, 5-[2-[4-[2-[4-[4-(2,4-dioxohexahydropyrimidin-1-yl)-2-fluoro-phenyl]-1-piperidyl]acetyl]piperazin-1-yl]pyrimidin-5-yl]-3-[3-[[ethyl(methyl)sulfamoyl]amino]-2,6-difluoro-benzoyl]-1H-pyrrolo[2,3-b]pyridine] | 41.3 nM | 13.2% | –
13 | CCN(C)S(=O)(=O)Nc1ccc(F)c(C(=O)c2c[nH]c3ncc(-c4cnc(N5CCN(C(=O)CC6CCN(c7c(F)cc(NC8CCC(=O)NC8=O)cc7F)CC6)CC5)nc4)cc23)c1F (stereo not shown) [Example 45, 5-[2-[4-[2-[1-[4-[(2,6-dioxo-3-piperidyl)amino]-2,6-difluoro-phenyl]-4-piperidyl]acetyl]piperazin-1-yl]pyrimidin-5-yl]-3-[3-[[ethyl(methyl)sulfamoyl]amino]-2,6-difluoro-benzoyl]-1H-pyrrolo[2,3-b]pyridine] | 23.6 nM | 14.2% | –
14 | CCN(C)S(=O)(=O)Nc1ccc(F)c(C(=O)c2c[nH]c3ncc(-c4cnc(N5CCN(C(=O)CC6CCN(c7ccc(NC8CCC(=O)NC8=O)cc7F)C6)CC5)nc4)cc23)c1F (stereo not shown) [Example 48, 5-[2-[4-[2-[1-[4-[(2,6-dioxo-3-piperidyl)amino]-2-fluoro-phenyl]pyrrolidin-3-yl]acetyl]piperazin-1-yl]pyrimidin-5-yl]-3-[3-[[ethyl(methyl)sulfamoyl]amino]-2,6-difluoro-benzoyl]-1H-pyrrolo[2,3-b]pyridine] | 23 nM | 15% | –
15 | CCN(C)S(=O)(=O)Nc1ccc(F)c(C(=O)c2c[nH]c3ncc(-c4cnc(N5CCN(C(=O)CN6CC7(C6)CN(c6ccc(NC8CCC(=O)NC8=O)cc6)C7)CC5)nc4)cc23)c1F (stereo not shown) [Example 49, 5-[2-[4-[2-[2-[4-[(2,6-dioxo-3-piperidyl)amino]phenyl]-2,6-diazaspiro[3.3]heptan-6-yl]acetyl]piperazin-1-yl]pyrimidin-5-yl]-3-[3-[[ethyl(methyl)sulfamoyl]amino]-2,6-difluoro-benzoyl]-1H-pyrrolo[2,3-b]pyridine] | 24.9 nM | 17.5% | –
16 | CCN(C)S(=O)(=O)Nc1ccc(F)c(C(=O)c2c[nH]c3ncc(-c4cnc(N5CCN(C(=O)Cc6ccc(N7CCN(C8CCC(=O)NC8=O)C(=O)C7)cc6)CC5)nc4)cc23)c1F (stereo not shown) [Example 50, 5-[2-[4-[2-[4-[4-(2,6-dioxo-3-piperidyl)-3-oxo-piperazin-1-yl]phenyl]acetyl]piperazin-1-yl]pyrimidin-5-yl]-3-[3-[[ethyl(methyl)sulfamoyl]amino]-2,6-difluoro-benzoyl]-1H-pyrrolo[2,3-b]pyridine] | 4.57 nM | 7.42% | –
17 | CCN(C)S(=O)(=O)Nc1ccc(F)c(C(=O)c2c[nH]c3ncc(-c4cnc(N5CCN(C(=O)CC6(O)CCN(c7ccc(NC8CCC(=O)NC8=O)cc7F)CC6)CC5)nc4)cc23)c1F (stereo not shown) [Example 59, 5-[2-[4-[2-[1-[4-[(2,6-dioxo-3-piperidyl)amino]-2-fluoro-phenyl]-4-hydroxy-4-piperidyl]acetyl]piperazin-1-yl]pyrimidin-5-yl]-3-[3-[[ethyl(methyl)sulfamoyl]amino]-2,6-difluoro-benzoyl]-1H-pyrrolo[2,3-b]pyridine] | 2.41 nM | 8.84% | –
